Experimental data taken from publication PMC6278315, “Microwave-Assisted Expeditious Synthesis of 2-Alkyl-2-(N-arylsulfonylindol-3-yl)-3-N-acyl-5-aryl-1,3,4-oxadiazolines Catalyzed by HgCl2 under Solvent-Free Conditions as Potential Anti-HIV-1 Agents” (Molecules, 2018).
Converted amounts (≈) assume the structure as drawn.

How the values were obtained:
[1] = system: HIV-1IIIB; test: Syncytia assay (anti-HIV-1 activity); type: cell-based; details: Human immunodeficiency virus 1, 72 h; concentration reducing syncytia formation by 50%; C8166 cells infected with HIV-1IIIB, M.O.I 0.06, 3 days; means of two separate experiments; read-out: EC50 (50% effective concentration)
Description: (§1) Cell line (C8166) and the laboratory-derived virus (HIV-1IIIB) were obtained from MRC, AIDS Reagent Project, London, UK. C8166 was maintainedin RPMI-1640 supplemented with 10% heat-inactivated newborn calf serum (Gibco, Grand Island, NY, USA). The cells used in all experiments were in log-phase growth. The 50% HIV-1IIIB tissue culture infectious dose (TCID50) in C8166 cells was determined and calculated by the Reed and Muench method. Virus stocks were stored in small aliquots at −70 °C.
In the presence of 100 μL various concentrations of 2-alkyl-2-(N-arylsulfonylindol-3-yl)-3-N-acyl-5-aryl-1,3,4-oxadiazolines, C8166 cells (4 × 10^5/mL) were infected with virus HIV-1IIIB at a multiplicity of infection (M.O.I) of 0.06. The final volume per well was 200 μL. Control assays were performed without the testing compounds in HIV-1IIIB infected and uninfected cultures. After 3 days of culture, the cytopathic effect (CPE) was measured by counting the number of syncytia. Percentage inhibition of syncytia formation was calculated and 50% effective concentration (EC50) was calculated. AZT (Sigma-Aldrich, St. Louis, MO, USA) was used as a positive control. Therapeutic index (TI) = CC50/EC50.

[2] = MTT-based cytotoxicity assay; details: human, C8166 cells, concentration causing 50% reduction in total C8166 cell number, means of two separate experiments, read-out: CC50 (50% cytotoxic concentration)
Description: as §1
Cellular toxicity of 2-alkyl-2-(N-arylsulfonylindol-3-yl)-3-N-acyl-5-aryl-1,3,4-oxadiazolines 3s–r′ on C8166 cells was assessed by MTT method as described previously. Briefly, cells were seeded on 96-well microtiter plate in the absence or presence of various concentrations of 2-alkyl-2-(N-arylsulfonylindol-3-yl)-3-N-acyl-5-aryl-1,3,4-oxadiazolines in triplicate and incubated at 37 °C in a humid atmosphere of 5% CO2 for 3 day. The supernatants were discarded and MTT reagent (5 mg/mL in PBS) was added to each wells, then incubated for 4 h, 100 μL of 50% N,N-dimethylformamide (DMF)-20% SDS was added. After the formazan was dissolved completely, the plates were read on a Bio-TekElx800 ELISA reader (BioTek, Winooski, VT, USA) at 595/630 nm. The cytotoxic concentration that caused the reduction of viable C8166 cells by 50% (CC50) was determined from dose–response curve.

Row | Structure (SMILES) | EC50 [1] [µg/mL] | melting point [°C] | CC50 at 3 day [2] [µg/mL]
1 | CC(=O)N1N=C(c2ccccc2)OC1(C)c1cn(S(=O)(=O)c2ccc(C)cc2)c2ccc([N+](=O)[O-])cc12 (stereo not drawn) [3b′, 2-Methyl-2-(N-p-methylbenzenesulfonyl-5-nitroindol-3-yl)-3-N-acetyl-5-phenyl-1,3,4-oxadiazolines] | 9.54 (≈ 18.4 µM) | 110 to 112 | 133 (≈ 256 µM)
2 | CC(=O)N1N=C(c2ccccc2)OC1(C)c1cn(S(=O)(=O)c2ccc(Cl)cc2)c2ccc([N+](=O)[O-])cc12 (stereo not drawn) [3c′, 2-Methyl-2-(N-p-chlorobenzenesulfonyl-5-nitroindol-3-yl)-3-N-acetyl-5-phenyl-1,3,4-oxadiazolines] | 6.01 (≈ 11.2 µM) | 108 to 110 | 53.4 (≈ 99.1 µM)
3 | CCC1(c2cn(S(=O)(=O)c3ccccc3)c3ccccc23)OC(c2ccccc2)=NN1C(C)=O (stereo not drawn) [3d′, 2-Ethyl-2-(N-benzenesulfonylindol-3-yl)-3-N-acetyl-5-phenyl-1,3,4-oxadiazolines] | 20.3 (≈ 42.9 µM) | 224 to 226 | 105 (≈ 222 µM)
4 | CC(=O)N1N=C(c2ccccc2)OC1c1cn(S(=O)(=O)c2ccc(C)cc2)c2ccccc12 (stereo not drawn) [3e′] | 15.5 (≈ 33.8 µM) |  | 15.1 (≈ 32.8 µM)
5 | CC(=O)N1N=C(c2ccccc2)OC1c1cn(S(=O)(=O)c2cccc([N+](=O)[O-])c2)c2ccccc12 (stereo not drawn) [3f′] | 1.79 (≈ 3.65 µM) |  | 43.5 (≈ 88.6 µM)
6 | CC(=O)N1N=C(c2ccccc2)OC1c1cn(S(=O)(=O)c2ccc(C)cc2)c2cc(C)ccc12 (stereo not drawn) [3g′] | 22.5 (≈ 47.5 µM) |  | 80.8 (≈ 171 µM)
7 | CC(=O)N1N=C(c2ccccc2)OC1c1cn(S(=O)(=O)c2cccc([N+](=O)[O-])c2)c2cc(C)ccc12 (stereo not drawn) [3i′] | 0.51 (≈ 1.01 µM) |  | 20.2 (≈ 40 µM)
8 | CC(=O)N1N=C(c2ccccc2)OC1c1cn(S(=O)(=O)c2ccc(Cl)c([N+](=O)[O-])c2)c2cc(C)ccc12 (stereo not drawn) [3j′] | 12.4 (≈ 23 µM) |  | 2.26 (≈ 4.19 µM)
9 | CC(=O)N1N=C(c2ccccc2)OC1c1cn(S(=O)(=O)c2ccc(Cl)cc2)c2ccccc12 (stereo not drawn) [3k′] | 19.4 (≈ 40.4 µM) |  | 16.6 (≈ 34.5 µM)
10 | COc1ccc(S(=O)(=O)n2cc(C3OC(c4ccccc4)=NN3C(C)=O)c3ccc(C)cc32)cc1 (stereo not drawn) [3n′] | 16.6 (≈ 33.8 µM) |  | 11.2 (≈ 22.9 µM)
11 | CC(=O)N1N=C(c2ccccc2)OC1c1cn(S(=O)(=O)c2ccc(C)cc2)c2ccc(C#N)cc12 (stereo not drawn) [3o′] | 18.1 (≈ 37.4 µM) |  | 152 (≈ 313 µM)
12 | CCC(=O)N1N=C(c2ccccc2)OC1c1cn(S(=O)(=O)c2ccc(C)cc2)c2ccc(C#N)cc12 (stereo not drawn) [3r′] | 4.01 (≈ 8.04 µM) |  | 98.3 (≈ 197 µM)
13 | CC(=O)N1N=C(c2ccccc2)OC1(C)c1cn(S(=O)(=O)c2ccccc2)c2ccc(C#N)cc12 (stereo not drawn) [3z, 2-Methyl-2-(N-benzenesulfonyl-5-cyanoindol-3-yl)-3-N-acetyl-5-phenyl-1,3,4-oxadiazolines] | 17.6 (≈ 36.3 µM) | 208 to 210 | 53 (≈ 109 µM)

Continued, in another order:

Row | EC50 [1] [µg/mL] | melting point [°C] | Structure (SMILES) | CC50 at 3 day [2] [µg/mL]
14 | 3.63 (≈ 6.99 µM) | 128 to 130 | CC(=O)N1N=C(c2ccccc2)OC1(C)c1cn(S(=O)(=O)c2ccc(Cl)cc2)c2ccc(C#N)cc12 (stereo not drawn) [3a′, 2-Methyl-2-(N-p-chlorobenzenesulfonyl-5-cyanoindol-3-yl)-3-N-acetyl-5-phenyl-1,3,4-oxadiazolines] | 113 (≈ 218 µM)
15 | 3.53 (≈ 6.72 µM) |  | CC(=O)N1N=C(c2ccccc2)OC1c1cn(S(=O)(=O)c2ccc(Cl)c([N+](=O)[O-])c2)c2ccccc12 (stereo not drawn) [3h′] | 4.8 (≈ 9.14 µM)
16 | 57.5 (≈ 116 µM) |  | CC(=O)N1N=C(c2ccccc2)OC1c1cn(S(=O)(=O)c2ccc(Cl)cc2)c2cc(C)ccc12 (stereo not drawn) [3l′] | 182 (≈ 368 µM)
17 | 22.5 (≈ 47.3 µM) |  | COc1ccc(S(=O)(=O)n2cc(C3OC(c4ccccc4)=NN3C(C)=O)c3ccccc32)cc1 (stereo not drawn) [3m′] | 12.3 (≈ 25.9 µM)
18 | 63.8 (≈ 124 µM) |  | CC(=O)N1N=C(c2ccccc2)OC1c1cn(S(=O)(=O)c2cccc([N+](=O)[O-])c2)c2ccc(C#N)cc12 (stereo not drawn) [3p′] | 135 (≈ 262 µM)
19 | 3 (≈ 6.34 µM) |  | CCC(=O)N1N=C(c2ccccc2)OC1c1cn(S(=O)(=O)c2ccc(C)cc2)c2ccccc12 (stereo not drawn) [3q′] | 78 (≈ 165 µM)
20 | 6.12 (≈ 12.9 µM) | 142 to 144 | CC(=O)N1N=C(c2ccccc2)OC1(C)c1cn(S(=O)(=O)c2ccccc2)c2cc(C)ccc12 (stereo not drawn) [3y, 2-Methyl-2-(N-benzenesulfonyl-6-methylindol-3-yl)-3-N-acetyl-5-phenyl-1,3,4-oxadiazolines] | > 200
21 | 0.00199 (≈ 0.00745 µM) |  | Cc1cn([C@H]2C[C@H](N=[N+]=[N-])[C@@H](CO)O2)c(=O)[nH]c1=O [AZT, 3′-azido-3′-deoxythymidine, reference compound] | 1370 (≈ 5140 µM)
